{"source": "patent US7985774B2", "about": "“Use of 3,5-seco-4-nor-cholestane derivatives for obtaining a cytoprotective drug” (Trophos, priority 2006, dated 2011)", "key": {"caspase-3": {"test_system": "caspase-3", "assay": "Caspase-3 activity (apoptosis) after doxorubicin", "assay_type": "cell-based, rabbit", "conditions": "8 hrs after exposure, control 19±9", "method": "(§1) Isolated ventricular cells are obtained from hearts of male New Zealand rabbits as described in A. d'Anglemont de Tassigny et al., Fund. Clin. Pharmacol, 18: 531-38, 2004. Briefly, the rabbits (2.0-2.5 kg) are anaesthetized with a pentobarbital solution (50 mg/kg) and they then receive heparin (200 IU/kg). The hearts are excised and immediately perfused, for 10-15 minutes by means of a Langendorff apparatus without recirculation with an oxygenated tyrode (calcium-free) isotonic solution (95%, 2-5% CO2) (in mM: NaCl 135, KCl 5.4, Na2PO4 0.33, MgCl2 1.0, HEPES 10, pH adjusted to 7.4 with 1N NaOH at 37° C., 280-300 mOsmol/kgH2O). Next, all the hearts are perfused for 3 minutes in the “recirculation” mode with the same calcium-free Tyrode solution (coronary flow rate, 10-15 mL/min) added with 1 mg/mL of type II collagenase and 0.28 mg/mL of XIV type protease. Finally, all the hearts are perfused in a mode without any recirculation with the same solution of Tyrode supplemented with 0.3 mM of CaCl2 for 10 min. The left ventricle is removed and cut into small pieces; cell dissociation is achieved by mild mechanical stirring. Extracellular calcium is added by increments every 15 minutes, in order to reach a physiological concentration of 1.0 mM. […]\nCaspase-3 activity is used as a quantitative method for measuring apoptosis. […] The fluorogenic substrate for measuring caspase-3 activity (DEVD) is marked with the fluorochrome, 7-amino-4-methyl coumarine (AMC), which produces […] fluorescence detectable in UV light at 360/460 nm for 210 min. […]\n(§2) Apoptosis is induced in isolated cardiomyocytes by 3-8 hour exposure to 1 μM of doxorubicin added into an isotonic solution containing (in mM) NaCl 110, KCl 5.4, Na2PO4 0.33, NaHCO3 25, glucose 5, MgCl2 0.8, CaCl2 1, pH adjusted to 7.4. […] The contractility of cardiomyocytes was measured every hour during the 8 hrs of exposure to doxorubicin. […]"}, "[1]": {"test_system": "rabbit ventricular cardiomyocytes", "assay": "Annexin V marking of phosphatidylserine (apoptosis) after doxorubicin", "assay_type": "cell-based", "conditions": "3 hrs after doxorubicin, control 100%", "method": "as §1\nAnnexin V marking of phosphatidylserine was used as a quantitative method for measuring apoptosis by using the MiniMacs cell isolation kit (Miltenyi Biotec, Bergisch, Gladbach, Germany). […] The column is removed from the magnetic field, the cells exposing phosphatidylserine, magnetically retained, are eluted as a positive fraction and counted with a Mallassez cell counter. […]\nas §2"}, "[2]": {"test_system": "rabbit ventricular cardiomyocytes", "assay": "Contractile dysfunction test induced by doxorubicin (sarcomer shortening)", "assay_type": "cell-based", "conditions": "after 4 hrs of exposure", "method": "A stock solution of 3,5-seco-4-nor-cholestan-5-one oxime-3-ol at a concentration of 10 mM in 100% DMSO was used.\nThe final concentration in DMSO was the same for all the experimental points, independently of the molecular concentrations used.\n3,5-seco-4-nor-cholestan-5-one oxime-3-ol was tested at concentrations of 0.1 and 0.3 μM, diluted in a Tyrode solution (composition in mmol/L: NaCl 135, KCl 5.4, NaH2PO4 0.33, CaCl2 1.2, MgCl2 1.0, Hepes 10; pH adjusted to 7.4 with NaOH).\nIsolated ventricular cells are obtained from hearts of male New Zealand rabbits as described in A. d'Anglemont de Tassigny et al., Fund. Clin. Pharmacol, 18: 531-38, 2004. Briefly, the rabbits (2.0-2.5 kg) are anaesthetized with a pentobarbital solution (50 mg/kg) and they then receive heparin (200 IU/kg). The hearts are excised and immediately perfused, for 10-15 minutes by means of a Langendorff apparatus without recirculation with an oxygenated tyrode (calcium-free) isotonic solution (95%, 2-5% CO2) (in mM: NaCl 135, KCl 5.4, Na2PO4 0.33, MgCl2 1.0, HEPES 10, pH adjusted to 7.4 with 1N NaOH at 37° C., 280-300 mOsmol/kgH2O). […]\nThe myocytes were selected for the study according to the following criterion: a rod-like aspect with very apparent striations and no intracellular vacuola, no spontaneous contraction when they are stimulated with 1 mM Ca^2+, and with constant rest length and contraction amplitude. The length of the sarcomers was measured by means of a video image analysis program and the data were acquired at a rate of 240 samples/s. […]\nas §2"}, "[3]": {"conditions": "doxorubicin 1 μM + compound 0.1 μM"}, "[4]": {"conditions": "doxorubicin 1 μM + compound 0.3 μM"}}}
{"smiles": "CC(C)CCC[C@@H](C)[C@H]1CC[C@H]2[C@@H]3CC/C(=N\\O)[C@](C)(CCCO)[C@H]3CC[C@]12C", "note": "[3,5-seco-4-nor-cholestan-5-one oxime-3-ol]", "values": [{"measurement": "caspase-3 activity", "setting": "caspase-3; [3]", "value": "27 ± 20", "unit": "fmol/min"}, {"measurement": "caspase-3 activity", "setting": "caspase-3; [4]", "value": "15 ± 7", "unit": "fmol/min"}, {"measurement": "Apoptosis as % of change in annexin V marking", "setting": "[1]; [3]", "value": 116.3, "unit": "%"}, {"measurement": "Apoptosis as % of change in annexin V marking", "setting": "[1]; [4]", "value": 137.3, "unit": "%"}, {"measurement": "shortening of the peak relatively to the base line", "setting": "[2]; doxorubicin 1 μM + compound 0.1 μM (15 min pre-treatment)", "value": "18.9±5.4", "unit": "%"}, {"measurement": "shortening of the peak relatively to the base line", "setting": "[2]; doxorubicin 1 μM + compound 0.3 μM (15 min pre-treatment)", "value": "−8.1±9.6", "unit": "%"}]}
